Patent publication US7470794B2, “Preparation and use of ortho-sulfonamido aryl hydroxamic acids as matrix metalloproteinase inhibitors” (Wyeth, priority 2000, dated 2008)
Like-named read-outs stand apart in the source and are kept apart here.

Legend:
[1] = biological target: MMP-9 (Homo sapiens, UniProt P14780); test: MMP-9 inhibition (thiopeptide or fluorescent peptide substrate assay); assay type: biochemical
Procedure: (§1) These assays are based on the cleavage of a thiopeptide substrates such as Ac-Pro-Leu-Gly(2-mercapto-4-methyl-pentanoyl)-Leu-Gly-OEt by the matrix metalloproteinases MMP-1, MMP-13 (collagenases) or MMP-9 (gelatinase), which results in the release of a substrate product that reacts colorimetrically with DTNB (5,5′-dithiobis(2-nitro-benzoic acid)). The enzyme activity is measured by the rate of the color increase. The thiopeptide substrate is made up fresh as a 20 mM stock in 100% DMSO and the DTNB is dissolved in 100% DMSO as a 100 mM stock and stored in the dark at room temperature. Both the substrate and DTNB are diluted together to 1 mM with substrate buffer (50 mM HEPES pH 7.5, 5 mM CaCl2) before use. The stock of enzyme is diluted with assay buffer (50 mM HEPES, pH 7.5, 5 mM CaCl2, 0.02% Brij) to the desired final concentration. The assay buffer, enzyme, vehicle or inhibitor, and DTNB/substrate are added in this order to a 96 well plate (total reaction volume of 200 μl) and the increase in color is monitored spectrophotometrically for 5 minutes at 405 nm on a plate reader and the increase in color over time is plotted as a linear line.
(§2) Alternatively, a fluorescent peptide substrate is used. In this assay, the peptide substrate contains a fluorescent group and a quenching group. Upon cleavage of the substrate by an MMP, the fluorescence that is generated is quantitated on the fluorescence plate reader. The assay is run in HCBC assay buffer (50 mM HEPES, pH 7.0, 5 mM Ca^+2, 0.02% Brij, 0.5% Cysteine), with human recombinant MMP-1, MMP-9, or MMP-13. The substrate is dissolved in methanol and stored frozen in 1 mM aliquots. For the assay, substrate and enzymes are diluted in HCBC buffer to the desired concentrations. Compounds are added to the 96 well plate containing enzyme and the reaction is started by the addition of substrate. The reaction is read (excitation 340 nm, emission 444 nm) for 10 min. and the increase in fluorescence over time is plotted as a linear line.
(§3) For either the thiopeptide or fluorescent peptide assays, the slope of the line is calculated and represents the reaction rate. The linearity of the reaction rate is confirmed (r^2>0.85). The mean (x±sem) of the control rate is calculated and compared for statistical significance (p<0.05) with drug-treated rates using Dunnett's multiple comparison test. Dose-response relationships can be generated using multiple doses of drug and IC50 values with 95% CI are estimated using linear regression.

[2] = biological target: T1, MMP-1 (Homo sapiens, UniProt P03956); test: MMP-1 inhibition (thiopeptide or fluorescent peptide substrate assay); assay type: biochemical
T1 sequence (P03956 100-469): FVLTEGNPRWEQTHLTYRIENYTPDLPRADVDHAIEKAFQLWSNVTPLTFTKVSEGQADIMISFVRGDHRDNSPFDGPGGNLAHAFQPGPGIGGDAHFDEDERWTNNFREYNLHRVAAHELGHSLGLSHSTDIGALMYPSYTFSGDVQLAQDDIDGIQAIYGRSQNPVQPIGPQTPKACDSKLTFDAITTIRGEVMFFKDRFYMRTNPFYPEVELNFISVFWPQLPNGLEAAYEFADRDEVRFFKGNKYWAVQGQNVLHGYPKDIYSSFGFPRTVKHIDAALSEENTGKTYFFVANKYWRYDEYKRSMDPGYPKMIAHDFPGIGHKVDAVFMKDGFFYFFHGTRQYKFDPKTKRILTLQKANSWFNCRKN
Procedure: as §1, §2, §3

[3] = biological target: T2, tumor necrosis factor-alpa converting enzyme (TACE; Immunex) (Homo sapiens, UniProt P78536); test: TACE inhibition (fluorescent peptidyl substrate assay); assay type: biochemical; details: 1 μM test compound
T2 construct: purchased Immunex
Procedure: Using 96-well black microtiter plates, each well receives a solution composed of 10 μL tumor necrosis factor-alpa converting enzyme (TACE; Immunex, final concentration 1 μg/mL), 70 μL Tris buffer, pH 7.4 containing 10% glycerol (final concentration 10 mM), and 10 μL of test compound solution in DMSO (final concentration 1 μM, DMSO concentration <1%) and incubated for 10 minutes at room temperature. The reaction is initiated by addition of a fluorescent peptidyl substrate (final concentration 100 μM) to each well and then shaking on a shaker for 5 sec.
The reaction is read (excitation 340 nm, emission 420 nm) for 10 min. and the increase in fluorescence over time is plotted as a linear line. The slope of the line is calculated and represents the reaction rate.
as §3, with “The” for “For either the thiopeptide or fluorescent peptide assays, the slope of the line is calculated and represents the reaction rate. The”, “generate” for “generated”

[4] = biological target: MMP-13 (Homo sapiens, UniProt P45452); test: MMP-13 inhibition (thiopeptide or fluorescent peptide substrate assay); assay type: biochemical
Procedure: as §1, §2, §3

MMP-9, sequence (P14780 94-707): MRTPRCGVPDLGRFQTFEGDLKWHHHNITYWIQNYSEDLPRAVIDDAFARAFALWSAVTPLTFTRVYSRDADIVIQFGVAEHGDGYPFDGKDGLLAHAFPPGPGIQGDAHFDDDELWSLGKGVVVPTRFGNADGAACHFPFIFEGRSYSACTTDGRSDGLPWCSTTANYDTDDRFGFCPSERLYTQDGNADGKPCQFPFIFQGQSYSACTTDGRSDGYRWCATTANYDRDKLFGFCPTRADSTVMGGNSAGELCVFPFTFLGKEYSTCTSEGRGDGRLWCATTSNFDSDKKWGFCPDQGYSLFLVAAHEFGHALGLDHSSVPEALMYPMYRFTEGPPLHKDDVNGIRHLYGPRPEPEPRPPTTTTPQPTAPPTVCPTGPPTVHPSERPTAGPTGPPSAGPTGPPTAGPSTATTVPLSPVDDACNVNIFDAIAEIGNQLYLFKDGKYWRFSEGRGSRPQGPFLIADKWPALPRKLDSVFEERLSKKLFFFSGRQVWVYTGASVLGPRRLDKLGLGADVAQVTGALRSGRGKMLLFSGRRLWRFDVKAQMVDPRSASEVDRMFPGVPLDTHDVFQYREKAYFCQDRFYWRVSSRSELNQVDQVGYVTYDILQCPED
T2 sequence (P78536 215-824): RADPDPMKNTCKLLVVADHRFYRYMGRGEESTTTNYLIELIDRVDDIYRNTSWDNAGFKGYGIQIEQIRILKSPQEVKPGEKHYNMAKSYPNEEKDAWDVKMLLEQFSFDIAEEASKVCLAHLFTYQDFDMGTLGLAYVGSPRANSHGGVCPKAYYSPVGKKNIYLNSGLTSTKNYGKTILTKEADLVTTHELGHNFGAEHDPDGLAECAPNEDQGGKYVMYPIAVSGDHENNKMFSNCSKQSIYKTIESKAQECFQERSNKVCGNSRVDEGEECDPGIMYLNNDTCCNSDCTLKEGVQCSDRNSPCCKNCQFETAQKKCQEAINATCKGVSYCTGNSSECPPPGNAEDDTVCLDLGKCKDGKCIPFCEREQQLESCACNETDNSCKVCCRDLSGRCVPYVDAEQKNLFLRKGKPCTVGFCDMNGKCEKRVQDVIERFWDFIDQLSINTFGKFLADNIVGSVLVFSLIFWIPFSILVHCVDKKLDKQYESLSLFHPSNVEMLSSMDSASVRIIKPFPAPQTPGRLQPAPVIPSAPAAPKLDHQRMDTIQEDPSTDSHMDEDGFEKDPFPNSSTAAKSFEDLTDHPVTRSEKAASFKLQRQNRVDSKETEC

Compound	IC50 [1]	melting point	IC50 [2]	IC50 [4]	IC50 ([2]; cells printed in μM)	inhibition at 1 µM [3]	TACE % inhibition @ 1 μM [3]
Cc1cccc(C(=O)NO)c1N(C)S(=O)(=O)c1ccc(OCCCNC(=O)c2cc3ccccc3[nH]2)cc1 [Example 10, 1H-Indole-2-carboxylic acid(3-{4-[(2-hydroxycarbamoyl-6-methyl-phenyl)-methyl-sulfamoyl]-phenoxy}-propyl)-amide]	305 nM	144 to 146 °C	5.64 µM	178 nM	–	35.7%	–
Cc1cccc(C(=O)NO)c1N(C)S(=O)(=O)c1ccc(OCCCNC(=O)c2ccc3c(c2)OCO3)cc1 [Example 14, N-{3-[4-({2-[(hydroxyamino)carbonyl]-6, N-dimethylanilino}sulfonyl)phenoxy]propyl}-1,3-benzodioxole-5-carboxamide]	63.6 nM	102 to 112 °C	1.48 µM	110 nM	–	42.1%	–
Cc1cccc(C(=O)NO)c1N(C)S(=O)(=O)c1ccc(OCCCNC(=O)c2cc3ccccc3s2)cc1 [Example 27, N-{3-[4-({2-[(Hydroxyamino)carbonyl]-6-dimethylanilino}-sulfonyl)phenoxy]propyl}-1-benzothiophene-2-carboxamide]	1390 nM	100 to 105 °C	–	43 nM	30 µM	22%	–
Cc1cc(C)c(N(Cc2ccccc2)S(=O)(=O)c2ccc(OCCNC(=O)c3cc4ccccc4o3)cc2)c(C(=O)NO)c1 [Example 31, Benzofuran-2-carboxylic acid(2-{4-[benzyl-(2-hydroxycarbamoyl-4,6-dimethyl-phenyl)-sulfamoyl]-phenoxy}-ethyl)-amide]	–	–	–	17.1 nM	–	18.9%	–
N-{4-[4-({2-[(hydroxyamino)carbonyl]-6, N-dimethylanilino}sulfonyl)phenoxy]butyl}-1,3-benzodioxole-5-carboxamide [Example 16]	55.7 nM	–	0.999 µM	83.5 nM	–	–	27.4%

Continued, in another order:

IC50 [1]	melting point	IC50 [2]	IC50 [4]	IC50 ([2]; cells printed in μM)	Compound	inhibition at 1 µM [3]	TACE % inhibition @ 1 μM [3]
337 nM	114 to 121 °C	4.24 µM	73 nM	–	Cc1cccc(C(=O)NO)c1N(C)S(=O)(=O)c1ccc(OCCNC(=O)c2ccc3ccccc3n2)cc1 [Example 4, Quinoline-2-carboxylic acid(2-{4-[(2-hydroxycarbamoyl-6-methyl-phenyl)-methyl-sulfamoyl]-phenoxy}-ethyl)-amide]	19.9%	–
510 nM	148 to 150 °C	5.45 µM	4.9 nM	–	Cc1cccc(C(=O)NO)c1N(C)S(=O)(=O)c1ccc(OCCCNC(=O)c2cc3ccccc3o2)cc1 [Example 6, Benzofuran-2-carboxylic acid(3-{4-[(2-hydroxycarbamoyl-6-methyl-phenyl)-methyl-sulfamoyl]-phenoxy}-propyl)-amide]	21.3%	–
84 nM	131 to 134 °C	5.12 µM	467 nM	–	Cc1cccc(C(=O)NO)c1N(C)S(=O)(=O)c1ccc(OCCCCNC(=O)c2cc3ccccc3o2)cc1 [Example 8, Benzofuran-2-carboxylic acid(4-{4-[(2-hydroxycarbamoyl-6-methyl-phenyl)-methyl-sulfamoyl]-phenoxy}-butyl)-amide]	43.6%	–
914 nM	169 to 171 °C	–	595 nM	> 10 µM	Cc1cccc(C(=O)NO)c1N(C)S(=O)(=O)c1ccc(OCCNC(=O)c2cc3ccccc3s2)cc1 [Example 12, Benzo[b]thiophene-2-carboxylic acid(2-{4-[(2-hydroxycarbamoyl-6-methyl-phenyl)-methyl-sulfamoyl]-phenoxy}-ethyl)-amide]	15.2%	–
